Test results from patent publication US20050004126A1 (priority 2001, published 2005).
Read-outs that look alike come from different tables or passages of the source.

What was measured:
[1] = target: T1, MMP-1FL (full-length interstitial collagenase) (Homo sapiens, UniProt P03956); experiment: Thiopeptolide hydrolysis assay, MMP-1; assay type: biochemical
T1 sequence (P03956 100-469): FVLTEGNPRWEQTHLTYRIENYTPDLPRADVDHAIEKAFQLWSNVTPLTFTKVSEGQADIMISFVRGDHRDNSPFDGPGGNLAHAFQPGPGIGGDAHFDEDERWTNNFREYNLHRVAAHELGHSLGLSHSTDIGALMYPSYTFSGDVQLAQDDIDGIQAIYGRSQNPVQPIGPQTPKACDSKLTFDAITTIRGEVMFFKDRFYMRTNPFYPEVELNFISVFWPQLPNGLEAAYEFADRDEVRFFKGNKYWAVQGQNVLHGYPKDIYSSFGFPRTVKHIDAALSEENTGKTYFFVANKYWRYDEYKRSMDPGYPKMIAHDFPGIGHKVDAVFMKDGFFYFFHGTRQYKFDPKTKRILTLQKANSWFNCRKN

[2] = target: T2, MMP-2FL (full length Gelatinase A) (Homo sapiens, UniProt P08253); experiment: Thiopeptolide hydrolysis assay, MMP-2; assay type: biochemical
T2 sequence (P08253 110-660): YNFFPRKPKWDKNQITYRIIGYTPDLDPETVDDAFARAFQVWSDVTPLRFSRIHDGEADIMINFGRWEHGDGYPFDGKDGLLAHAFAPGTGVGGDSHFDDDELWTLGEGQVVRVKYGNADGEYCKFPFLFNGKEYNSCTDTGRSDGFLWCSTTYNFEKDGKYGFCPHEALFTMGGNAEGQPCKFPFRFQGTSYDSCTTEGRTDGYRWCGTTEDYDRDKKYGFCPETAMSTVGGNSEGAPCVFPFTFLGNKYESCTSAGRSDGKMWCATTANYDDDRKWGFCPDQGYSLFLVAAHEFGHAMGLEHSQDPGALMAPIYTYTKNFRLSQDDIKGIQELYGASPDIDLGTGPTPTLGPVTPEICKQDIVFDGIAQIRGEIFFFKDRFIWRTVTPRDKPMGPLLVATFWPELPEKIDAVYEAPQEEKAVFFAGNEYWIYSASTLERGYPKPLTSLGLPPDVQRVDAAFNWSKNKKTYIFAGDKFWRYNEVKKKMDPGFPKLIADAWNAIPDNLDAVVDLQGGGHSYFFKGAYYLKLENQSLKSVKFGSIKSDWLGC

[3] = target: MMP-14CD (catalytic domain of membrane type 1 MMP) (Homo sapiens, UniProt P50281); experiment: Thiopeptolide hydrolysis assay, MMP-14; assay type: biochemical
[4] = target: MMP-9FL (full length Gelatinase B) (Homo sapiens, UniProt P14780); experiment: Thiopeptolide hydrolysis assay, MMP-9; assay type: biochemical
Sequence of MMP-9FL (full length Gelatinase B) (P14780 94-707): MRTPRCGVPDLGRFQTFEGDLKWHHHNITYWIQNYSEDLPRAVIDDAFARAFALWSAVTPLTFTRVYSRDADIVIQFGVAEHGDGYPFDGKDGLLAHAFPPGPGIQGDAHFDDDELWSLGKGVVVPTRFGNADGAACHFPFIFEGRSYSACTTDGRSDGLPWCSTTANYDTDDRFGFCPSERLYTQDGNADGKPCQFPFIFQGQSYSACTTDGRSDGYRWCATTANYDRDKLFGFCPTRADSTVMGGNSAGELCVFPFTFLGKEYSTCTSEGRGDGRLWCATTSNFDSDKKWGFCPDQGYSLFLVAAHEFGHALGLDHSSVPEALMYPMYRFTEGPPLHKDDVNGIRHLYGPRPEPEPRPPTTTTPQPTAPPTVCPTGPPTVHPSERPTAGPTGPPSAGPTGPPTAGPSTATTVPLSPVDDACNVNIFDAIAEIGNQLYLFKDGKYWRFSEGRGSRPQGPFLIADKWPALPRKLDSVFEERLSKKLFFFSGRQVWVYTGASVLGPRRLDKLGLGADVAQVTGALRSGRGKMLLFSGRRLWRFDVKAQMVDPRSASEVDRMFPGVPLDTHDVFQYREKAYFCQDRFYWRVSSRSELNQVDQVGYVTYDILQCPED

[5] = target: T3, MMP-13CD (catalytic domain of collagenase 3) (Homo sapiens, UniProt P45452); experiment: Thiopeptolide hydrolysis assay, MMP-13;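 further: inhibition of enzymatic thiopeptolide substrate cleavage (100 µM) in pH 6.0 MES buffer with CaCl2 and DTNB, comparing hydrolysis with versus without inhibitor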
Method: (§1) They measure the amount by which a test compound reduces the hydrolysis of a thiopeptolide substrate caused by a matrix metalloproteinase enzyme.
(§2) Thiopeptolide substrates show virtually no decomposition or hydrolysis in the absence of a matrix metalloproteinase enzyme. A typical thiopeptolide substrate commonly utilized for assays is Ac-Pro-Leu-Gly-thioester-Leu-Leu-Gly-OEt. A 100 μL assay mixture will contain 50 mM of 2-morpholinoethane sulfonic acid monohydrate (MES, pH 6.0) 10 mM CaCl2, 100 μM thiopeptolide substrate, and 1 mM 5,5′-dithio-bis-(2-nitro-benzoic acid) (DTNB). […] Assays are carried out with and without matrix metalloproteinase inhibitor compounds, and the amount of hydrolysis is compared for a determination of inhibitory activity of the test compounds.

[6] = target: MMP-3CD (catalytic domain of stromelysin) (Homo sapiens, UniProt P08254); experiment: Thiopeptolide hydrolysis assay, MMP-3; assay type: biochemical;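 further: inhibition of thiopeptolide substrate (100 µM) cleavage by the MMP-3 catalytic domain, detected with DTNB at pH 6.0 with CaCl2, hydrolysis compared against runs lacking inhibitor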
Sequence of MMP-3CD (catalytic domain of stromelysin) (P08254 100-272 limits assumed): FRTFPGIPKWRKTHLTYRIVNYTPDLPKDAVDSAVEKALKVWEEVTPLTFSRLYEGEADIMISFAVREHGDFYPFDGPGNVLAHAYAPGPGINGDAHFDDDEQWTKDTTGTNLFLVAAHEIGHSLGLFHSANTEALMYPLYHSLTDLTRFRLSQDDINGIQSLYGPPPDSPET
Method: as §1, §2

[7] = target: T4, MMP-7FL (full-length matrilysin) (Homo sapiens, UniProt P09237); experiment: Thiopeptolide hydrolysis assay, MMP-7; assay type: biochemical
T4 sequence (P09237 95-267): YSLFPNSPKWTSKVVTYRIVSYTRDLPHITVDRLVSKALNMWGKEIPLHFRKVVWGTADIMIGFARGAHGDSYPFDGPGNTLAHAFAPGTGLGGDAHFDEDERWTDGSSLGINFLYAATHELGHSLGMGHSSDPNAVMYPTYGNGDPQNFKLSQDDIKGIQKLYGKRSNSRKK

[8] = target: T3, MMP-13CD (catalytic domain of collagenase 3); experiment: biochemical
Method: as §1, §2

other MMP enzymes = conditions: Chen et al.; cited from earlier work
MMP-13 = MMP-13 (Homo sapiens, UniProt P45452); conditions: cited from earlier work
[9] = Table VI, synthesis examples, read-out: MMP01
[10] = Table VI, synthesis examples, read-out: MMP02
[11] = Table VI, synthesis examples, read-out: MMP014
[12] = Table VI, synthesis examples, read-out: MMP09
[13] = MMP13 (CD) IC50 μM, Table 1a, catalytic domain
[14] = Table 1a, catalytic domain, read-out: MMP03 (CD) IC50
[15] = Table 1a, full-length enzyme, read-out: MMP07 (FL) IC50
[16] = Table 1a, full-length enzyme, read-out: MMLP01 (FL) IC50
[17] = Table 1a, full-length enzyme, read-out: MMP02 (FL) IC50
[18] = Table 1a, catalytic domain, read-out: MMP14 (CD) IC50
[19] = Table 1a, full-length enzyme, read-out: MMP09 (FL) IC50
[20] = Table VI, synthesis examples, read-out: MMP07

SMILES	IC50 [5, 13] [µM]	IC50 [6, 14] [µM]	IC50 [7, 15] [µM]	IC50 [2, 17] [µM]	IC50 [3, 18] [µM]	IC50 [4, 19] [µM]	other results
CN1C(=O)N(Cc2ccccc2)S(=O)(=O)c2cc(C(=O)OCc3ccccc3)ccc21 [compound 62]	–	–	–	–	–	–	IC50 [1, 9]: > 100 µM; IC50 [2, 10]: > 100 µM; IC50 [3, 11]: > 100 µM; IC50 [4, 12]: > 100 µM
COc1ccc(CNC(=O)c2cn3c(=O)n(Cc4ccc(C(=O)O)cc4)c(=O)c(C)c3s2)cc1 [Example 5]	0.0015	29	> 100	> 100	> 100	> 100	IC50 [1, 16]: > 100 µM
COC(=O)c1ccc(Cn2c(=O)c3cc(C(=O)NCc4ccc(OC)cc4)ccc3n3cnnc23)cc1 [Synthesis Example 59, Methyl 4-{7-[(4-methoxybenzyl)-carbamoyl]-5-oxo-5H-[1,2,4]triazolo[4,3-a]quinazol-4-ylmethyl}benzoate]	–	–	–	–	–	–	IC50 ([5]; IC50 μM, Table V, MMP-13): 0.0026 µM; melting point: 210 °C
Cc1c(=O)n(Cc2ccccc2)c(=O)n2cc(C(=O)OCc3ccccc3)sc12 [Example 3]	0.0056	> 30	> 100	> 100	–	> 100	IC50 [3]: > 100 µM
COc1ccc(CNC(=O)c2cn3c(=O)n(Cc4ccc(Cl)c(Cl)c4)c(=O)cc3s2)cc1 [Example 8]	0.084	> 100	> 100	> 100	> 100	> 100	IC50 [1, 16]: > 100 µM
O=C(OCc1ccncc1)c1cn2c(=O)n(Cc3ccccc3)c(=O)cc2s1 [Example 4]	0.0054	≥ 30	≥ 100	–	≥ 100	≥ 100	–
CN1C(=O)N(Cc2ccccc2)S(=O)(=O)c2cc(C(=O)NCc3ccccc3)ccc21 [compound 63]	–	–	–	–	–	–	IC50 ([6]; Table VI, synthesis examples, read-out: MMP03): > 30 µM; IC50 [7, 20]: > 30 µM; IC50 [1, 9]: > 100 µM; IC50 [2, 10]: > 30 µM; IC50 [3, 11]: > 30 µM; IC50 [4, 12]: > 30 µM
O=C(O)c1ccc(Cn2c(=O)c3cc(C(=O)NCc4ccc5c(c4)OCO5)ccc3n3cnnc23)cc1 [Synthesis Example 61, 4-{7-[(1,3-Benzodioxol-5-ylmethyl)-carbamoyl]-5-oxo-5H-[1,2,4]triazolo[4,3-a]quinazol-4-ylmethyl}benzoic acid]	–	–	–	–	–	–	IC50 ([5]; IC50 μM, Table V, MMP-13): 0.0009 µM; melting point: 235 °C
O=C(NCc1ccc2c(c1)OCO2)c1ccc2[nH]c(=S)n(Cc3ccccc3)c(=O)c2c1 [3-Benzyl-4-oxo-2-thioxo-1,2,3,4-tetrahydroquinazoline-6-carboxylic acid (benzo[1,3]dioxol-5-ylmethyl)amide]	–	–	–	–	–	–	IC50 ([5]; MMP13 IC50 μM, Table IVb): 0.014 µM; IC50 [8]: 14 nM
COc1ccc(CNC(=O)c2ccc3c(c2)S(=O)(=O)N(Cc2ccc([N+](=O)[O-])cc2)C(=O)N3C)cc1 [compound 65]	–	–	–	–	–	–	IC50 [7, 20]: > 30 µM; IC50 [1, 9]: > 30 µM; IC50 [3, 11]: > 30 µM; IC50 [4, 12]: > 30 µM
COc1ccc(CNC(=O)c2cn3c(=O)n(Cc4ccc(C(=O)O)cc4)c(=O)c(C)c3s2)cc1 [Synthesis Example 5, 4-[2-(4-Methoxy-benzylcarbamoyl)-8-methyl-5,7-dioxo-7H-thiazolo[3,2-c]pyrimidin-6-ylmethyl]-benzoic acid]	–	–	–	–	–	–	melting point: > 210 °C
O=C(OCc1ccncc1)c1cc2c(=O)n(Cc3ccccc3)c(=O)[nH]c2s1 [Synthesis Example 18, 3-Benzyl-2,4-dioxo-1,2,3,4-tetrahydro-thieno[2,3-d]pyrimidine-6-carboxylic acid pyridin-4-ylmethyl ester]	–	–	–	–	–	–	melting point: 248 to 250 °C
O=C(NCCCCN1CCOCC1)c1cc2ccccc2o1 [compound of the formula I]	–	–	–	–	–	–	activity against other MMP enzymes (other MMP enzymes): inactive; inhibition against MMP-13 (MMP-13; high throughput screening hit, Chen et al.): weak inhibition
O=C(NCc1ccccc1)c1cn2c(=O)n(Cc3ccccc3)c(=O)cc2s1 [Example 2]	0.51	> 100	> 100	81	> 100	> 100	IC50 [1, 16]: > 100 µM
Cc1c(=O)n(Cc2ccc(S(C)(=O)=O)cc2)c(=O)n2cc(C(=O)NCc3ccncc3)sc12 [Example 7]	0.0235	> 100	> 100	> 100	> 100	> 100	–
O=C(NCc1cccnc1)c1ccc2[nH]c(=O)n(Cc3ccccc3)c(=O)c2c1 [3-Benzyl-2,4-dioxo-1,2,3,4-tetrahydroquinazoline-6-carboxylic acid (3-pyridylmethyl)amide]	–	–	–	–	–	–	IC50 [8]: 366 nM
O=C(OCc1ccccc1)c1ccc2[nH]c(=O)n(Cc3ccccc3)c(=O)c2c1 [Synthesis Example 41, Benzyl 3-benzyl-2,4-dioxo-1,2,3,4-tetrahydroquinazoline-6-carboxylate]	–	–	–	–	–	–	IC50 [8]: 29 nM
Cc1c(=O)n(Cc2ccc(C(=O)O)cc2)c(=O)n2cc(C(=O)NCc3ccncc3)sc12 [Example 6]	0.0057	> 100	> 100	> 100	> 100	> 100	–
Cc1cc(C)c(N(Cc2ccccc2)S(=O)(=O)c2ccc(OCCNC(=O)c3cc4ccccc4o3)cc2)c(C(=O)NO)c1 [WAY-170523]	–	–	–	–	–	–	selectivity for MMP-13 (MMP-13; as reported by Chen et al.): selective inhibitor of MMP-13
Cn1c(=O)n(Cc2ccccc2)c(=O)c2cc(C(=O)OCc3ccccc3)ccc21 [Synthesis Example 42, Benzyl 3-benzyl-1-methyl-2,4-dioxo-1,2,3,4-tetrahydroquinazoline-6-carboxylate]	–	–	–	–	–	–	IC50 [8]: 31 nM
O=C(OCc1ccccc1)c1cn2c(=O)n(Cc3ccccc3)c(=O)cc2s1 [Example 1]	–	–	> 100	> 100	> 100	> 100	IC50 ([6]; read-out: MMP03 (CD) IC50): > 100 µM
